Measured values from PubChem BioAssay AID330 (DTP/NCI, 2004).
Values joined by “and” are separate entries in the source; they are usually repeats but may differ in a detail not shown here. Equal values may be shown once. Inconclusive results and toxic doses are left out.

System: P388 leukemia ip, CD2F1 mice, survival T/C
Test: NCI In Vivo Anticancer Drug Screen. Data for tumor model P388 Leukemia (intraperitoneal) in CD2F1 (CDF1) mice
Conditions: endpoint: median survival time, higher = longer survival
Outline: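 Mice carrying the transplanted tumor received test compound or vehicle. Survival was recorded in each group, and the value is the treated-group measurement divided by that of the vehicle-treated control group.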

[1] = dose: 60.0 mg/kg/injection, schedule: Q01DX005 (ip), vehicle: saline with Tween-80
[2] = dose: 120.0 mg/kg/injection, schedule: Q01DX005 (ip), vehicle: saline with Tween-80
[3] = dose: 240.0 mg/kg/injection, schedule: Q01DX005 (ip), vehicle: saline with Tween-80
[4] = dose: 50.0 mg/kg/injection, schedule: Q01DX009 (ip), vehicle: saline with Tween-80
[5] = dose: 100.0 mg/kg/injection, schedule: Q01DX009 (ip), vehicle: saline with Tween-80
[6] = dose: 25.0 mg/kg/injection, schedule: Q01DX001 (ip), vehicle: saline with Tween-80
[7] = dose: 50.0 mg/kg/injection, schedule: Q01DX001 (ip), vehicle: saline with Tween-80
[8] = dose: 100.0 mg/kg/injection, schedule: Q01DX001 (ip), vehicle: saline with Tween-80
[9] = dose: 12.5 mg/kg/injection, schedule: Q01DX009 (ip), vehicle: distilled water + Tween-80
[10] = dose: 25.0 mg/kg/injection, schedule: Q01DX009 (ip), vehicle: distilled water + Tween-80
[11] = dose: 50.0 mg/kg/injection, schedule: Q01DX005 (ip), vehicle: saline with Tween-80
[12] = dose: 100.0 mg/kg/injection, schedule: Q01DX005 (ip), vehicle: saline with Tween-80
[13] = dose: 200.0 mg/kg/injection, schedule: Q01DX005 (ip), vehicle: saline with Tween-80
[14] = dose: 50.0 mg/kg/injection, schedule: Q01DX005 (ip), vehicle: Klucel (hydroxypropylcellulose) (HPC)

## NC(=S)c1cccc(/C=N/n2cnnc2)c1
dose: 100.0 mg/kg/injection, schedule: Q04DX003 (ip), vehicle: Klucel (hydroxypropylcellulose) (HPC)
  T/C: 97 % of control
dose: 200.0 mg/kg/injection, schedule: Q04DX003 (ip), vehicle: Klucel (hydroxypropylcellulose) (HPC)
  T/C: 93 % of control
dose: 400.0 mg/kg/injection, schedule: Q04DX003 (ip), vehicle: Klucel (hydroxypropylcellulose) (HPC)
  T/C: 90 % of control

## O=C1OCCN1c1cccc2ccccc12
[1]
  T/C: 95 % of control
[2]
  T/C: 96 % of control
[3]
  T/C: 93 % of control

## CCOC(=O)C1=NN(c2ccccc2)C(=O)C1c1ccccc1 (stereo not given)
[4]
  T/C: 90 % of control
[5]
  T/C: 93 % of control
dose: 200.0 mg/kg/injection, schedule: Q01DX009 (ip), vehicle: saline with Tween-80
  T/C: 107 % of control

## COc1cccc(/C=N/C(=S)NC2(C)C3CCC(C3)C2(C)C)c1O (stereo not given)
dose: 12.5 mg/kg/injection, schedule: Q01DX009 (ip), vehicle: olive oil, sesame oil, peanut oil
  T/C: 105 % of control
dose: 25.0 mg/kg/injection, schedule: Q01DX009 (ip), vehicle: olive oil, sesame oil, peanut oil
  T/C: 102 % of control
dose: 50.0 mg/kg/injection, schedule: Q01DX009 (ip), vehicle: olive oil, sesame oil, peanut oil
  T/C: 99 % of control
dose: 100.0 mg/kg/injection, schedule: Q01DX009 (ip), vehicle: olive oil, sesame oil, peanut oil
  T/C: 97 % of control
dose: 200.0 mg/kg/injection, schedule: Q01DX009 (ip), vehicle: olive oil, sesame oil, peanut oil
  T/C: 94 % of control
dose: 400.0 mg/kg/injection, schedule: Q01DX009 (ip), vehicle: olive oil, sesame oil, peanut oil
  T/C: 97 % of control

## O=C1CCC2CC1CCC2=O
dose: 12.5 mg/kg/injection, schedule: Q01DX009 (ip), vehicle: Klucel (hydroxypropylcellulose) (HPC)
  T/C: 111 % of control
dose: 25.0 mg/kg/injection, schedule: Q01DX009 (ip), vehicle: Klucel (hydroxypropylcellulose) (HPC)
  T/C: 102 % of control
dose: 50.0 mg/kg/injection, schedule: Q01DX009 (ip), vehicle: Klucel (hydroxypropylcellulose) (HPC)
  T/C: 109 % of control
dose: 100.0 mg/kg/injection, schedule: Q01DX009 (ip), vehicle: Klucel (hydroxypropylcellulose) (HPC)
  T/C: 111 % of control

## C/C=C\C(C)=C/C(C)C(=O)CC(O)CC1CC(=O)NC(=O)C1 (stereo not given)
dose: 1.56 mg/kg/injection, schedule: Q01DX009 (ip), vehicle: DMSO
  T/C: 91 % of control
dose: 3.12 mg/kg/injection, schedule: Q01DX009 (ip), vehicle: DMSO
  T/C: 98 % of control
dose: 6.25 mg/kg/injection, schedule: Q01DX009 (ip), vehicle: DMSO
  T/C: 93 % of control
dose: 12.5 mg/kg/injection, schedule: Q01DX009 (ip), vehicle: DMSO
  T/C: 100 % of control
dose: 25.0 mg/kg/injection, schedule: Q01DX009 (ip), vehicle: DMSO
  T/C: 107 % of control

## COc1cc(/C=C/C(=O)c2ccc(OCc3ccccc3)cc2OC(C)=O)c(OC)c(OC)c1OC
dose: 100.0 mg/kg/injection, schedule: Q01DX001 (ip), vehicle: Klucel (hydroxypropylcellulose) (HPC)
  T/C: 96 % of control
dose: 200.0 mg/kg/injection, schedule: Q01DX001 (ip), vehicle: Klucel (hydroxypropylcellulose) (HPC)
  T/C: 94 % of control

## Cc1cccc(=O)[n-]1.Cc1cccc(=O)[n-]1.Cc1cccc(=O)[n-]1.Cc1cccc(=O)[n-]1.Cc1cccc(=O)[n-]1.Cc1cccc(=O)[n-]1.Cc1cccc(=[OH+])[n-]1.Cc1cccc(=[OH+])[n-]1.[Rh+2].[Rh+2].[Rh+2].[Rh+2]
dose: 100.0 mg/kg/injection, schedule: Q04DX002 (ip), vehicle: Klucel (hydroxypropylcellulose) (HPC)
  T/C: 104 % of control
dose: 200.0 mg/kg/injection, schedule: Q04DX002 (ip), vehicle: Klucel (hydroxypropylcellulose) (HPC)
  T/C: 113 % of control

## O=S(=O)(/N=C1\c2ccccc2/C(=N\S(=O)(=O)c2ccccc2)C2C3C=CC(C3)C12)c1ccccc1 (stereo not given)
[6]
  T/C: 115 % of control
[7]
  T/C: 100 % of control
[8]
  T/C: 90 % of control

## CCO/C(C)=N\P(=O)(Oc1ccccc1)Oc1ccccc1
[9]
  T/C: 105 % of control
[10]
  T/C: 102 % of control
dose: 50.0 mg/kg/injection, schedule: Q01DX009 (ip), vehicle: distilled water + Tween-80
  T/C: 110 % of control
dose: 100.0 mg/kg/injection, schedule: Q01DX009 (ip), vehicle: distilled water + Tween-80
  T/C: 102 % of control

## CCOc1cc2c(cc1C(C)(C)c1ccccc1)OCO2
[11]
  T/C: 99 % of control
[12]
  T/C: 92 % of control
[13]
  T/C: 96 % of control

## CN(C)c1ccc(-c2c3ccccc3nc3ccccc23)cc1
dose: 12.5 mg/kg/injection, schedule: Q01DX009 (ip), vehicle: saline with Tween-80
  T/C: 90 % of control
dose: 25.0 mg/kg/injection, schedule: Q01DX009 (ip), vehicle: saline with Tween-80
  T/C: 90 % of control
[4]
  T/C: 100 % of control

## C=C1C(=O)O[C@H]2[C@H]1C[C@@H](O)[C@@]1(C)[C@@H](OC(=O)/C(C)=C/C)C[C@@H]3O[C@]3(C)[C@H]21
dose: 9.0 mg/kg/injection, schedule: Q01DX005 (ip), vehicle: Klucel + Tween-80
  T/C: 105 % of control
dose: 18.0 mg/kg/injection, schedule: Q01DX005 (ip), vehicle: Klucel + Tween-80
  T/C: 106 % of control
dose: 36.0 mg/kg/injection, schedule: Q01DX005 (ip), vehicle: Klucel + Tween-80
  T/C: 105 % of control
dose: 72.0 mg/kg/injection, schedule: Q01DX005 (ip), vehicle: Klucel + Tween-80
  T/C: 110 % of control

## CCOc1c(N=Nc2ccc(OC)cc2)c(C)nn1C(=S)S
dose: 60.0 mg/kg/injection, schedule: Q01DX005 (ip), vehicle: Klucel (hydroxypropylcellulose) (HPC)
  T/C: 115 % of control
dose: 120.0 mg/kg/injection, schedule: Q01DX005 (ip), vehicle: Klucel (hydroxypropylcellulose) (HPC)
  T/C: 112 % of control
dose: 240.0 mg/kg/injection, schedule: Q01DX005 (ip), vehicle: Klucel (hydroxypropylcellulose) (HPC)
  T/C: 100 % of control

## NCc1c(Cl)c(Cl)c(CN)c(Cl)c1Cl
[4]
  T/C: 91 % of control
dose: 50.0 mg/kg/injection, schedule: Q04DX003 (ip), vehicle: saline with Tween-80
  T/C: 91 % of control
[5]
  T/C: 91 % of control
dose: 100.0 mg/kg/injection, schedule: Q04DX003 (ip), vehicle: saline with Tween-80
  T/C: 91 % of control
dose: 200.0 mg/kg/injection, schedule: Q04DX003 (ip), vehicle: saline with Tween-80
  T/C: 87 % of control

## [Cl][Pt][Cl].[NH-]CC(=O)O
dose: 25.0 mg/kg/injection, schedule: Q01DX009 (ip), vehicle: water
  T/C: 171 % of control and 185 % of control
dose: 50.0 mg/kg/injection, schedule: Q01DX009 (ip), vehicle: water
  T/C: 104 % of control

## [O-][n+]1c2ccccc2[n+]([O-])c2c(O)cccc21
dose: 3.12 mg/kg/injection, schedule: Q01DX009 (ip), vehicle: distilled water + Tween-80
  T/C: 113 % of control
dose: 6.25 mg/kg/injection, schedule: Q01DX009 (ip), vehicle: distilled water + Tween-80
  T/C: 114 % of control and 121 % of control
[9]
  T/C: 121 % of control
[10]
  T/C: 119 % of control and 122 % of control

## Cc1cc(=O)n2c([nH]c3ccccc32)c1N=Nc1ccccc1
[14]
  T/C: 93 % of control
dose: 100.0 mg/kg/injection, schedule: Q01DX005 (ip), vehicle: Klucel (hydroxypropylcellulose) (HPC)
  T/C: 92 % of control
dose: 200.0 mg/kg/injection, schedule: Q01DX005 (ip), vehicle: Klucel (hydroxypropylcellulose) (HPC)
  T/C: 100 % of control

## NC(=O)Nc1cc2oc(=O)[nH]c2cc1Cl
[11]
  T/C: 94 % of control
[12]
  T/C: 95 % of control
[13]
  T/C: 90 % of control

## Nc1nc(N)c(Nc2ccc(Cl)cc2)c(Cl)n1
[6]
  T/C: 102 % of control
[7]
  T/C: 101 % of control
[8]
  T/C: 95 % of control

## N#CC(C(=O)CCC(=O)C(C#N)c1ccccc1Cl)c1ccccc1Cl (stereo not given)
[1]
  T/C: 104 % of control
[2]
  T/C: 114 % of control
[3]
  T/C: 111 % of control

## COc1ccc(-c2cc(=O)cc(C(N)=O)o2)cc1
[1]
  T/C: 101 % of control
[2]
  T/C: 97 % of control
[3]
  T/C: 96 % of control

## O=C(O)c1c(Br)c(Br)c(Br)c(Br)c1-c1c2ccc(=O)cc-2oc2cc(O)ccc12
[1]
  T/C: 101 % of control
[2]
  T/C: 105 % of control
[3]
  T/C: 101 % of control

## CC(C)N(C(C)C)p1n(C(C)(C)C)n1C(C)(C)C
dose: 12.5 mg/kg/injection, schedule: Q01DX005 (ip), vehicle: Klucel (hydroxypropylcellulose) (HPC)
  T/C: 108 % of control
dose: 25.0 mg/kg/injection, schedule: Q01DX005 (ip), vehicle: Klucel (hydroxypropylcellulose) (HPC)
  T/C: 117 % of control
[14]
  T/C: 110 % of control
